PMC10441178, “Antibiofilm assay for antimicrobial peptides combating the sulfate‐reducing bacteria Desulfovibrio vulgaris” (MicrobiologyOpen, 2023)
Ends that are not written are not given here. Peptide text beside a SMILES is read from it.

Legend:
[1] = in vitro; format: in vitro ADME; settings: cells or culture medium
Method: Figure 4 Long-term stability for the peptide […]1 in Postgate C medium (black) and in the supernatant of a 7-day-old culture of Desulfovibrio vulgaris (gray), analyzed with reversed-phase high-performance liquid chromatography; 100% peptide content corresponds with the peptide content at 0 h. Values are shown as means with standard deviation, n = 3.

[2] = tested on: Desulfovibrio vulgaris biofilm; format: cell-based, Desulfovibrio vulgaris DSM 644; settings: 6 h preincubation, then peptide (1 mg/mL to 1.95 µg/mL, twofold dilution), further 66 h, 37°C anaerobic; polished steel rivets; consistent for OD600 and OD570 (crystal violet); n = 3 per concentration
Method: D. vulgaris DSM 644 was cultivated in Postgate medium (DSMZ medium 63) with a modification of 0.004 g/L FeSO4 × 7H2O and 0.3 g/L trisodium citrate. The medium was flushed with nitrogen gas. Incubation was performed at 37°C without shaking. Steel […]660 4 × 15 mm (Würth-Gruppe) served as the growth surface. These were applied in the following pretreated stages: (1) mechanically untreated; (2) roughened: two turns with silicon carbide sandpaper with a grit size of 180; (3) polished: two turns with silicon carbide sandpaper with a sequential grit size of 320, 400, 600, 800, and 1200. The steel […] cleaned in acetone, 2-propanol, and ethanol (Carl Roth GmbH & Co. KG) for 5 min each using an ultrasonic bath, frequency 47 KHz (Branson Ultrasonic Corporation). […] Routine measurements of OD600 and OD570 were performed using the InfiniteM[…] plate reader (Tecan Group AG). For measurements in the anaerobic chamber, OD600 was measured with a Stratus microplate reader (Cerillo Inc.). […] Figure 2 Minimum biofilm inhibitory concentration (MBIC) assay for Desulfovibrio vulgaris: OD600 and OD570 of the challenge plate (72 h incubation) for different concentrations of four antimicrobial peptides: […]-33, Bactenecin, […]1 (black striped), and uninhibited sample (gray); mean and standard deviation were determined by propagation of error; asterisks indicate significant reduction (p = 0.005).

[3] = tested on: Desulfovibrio vulgaris biofilm; format: cell-based, Desulfovibrio vulgaris DSM 644
Method: D. vulgaris DSM 644 was cultivated in Postgate medium (DSMZ medium 63) with a modification of 0.004 g/L FeSO4 × 7H2O and 0.3 g/L trisodium citrate. The medium was flushed with nitrogen gas. Incubation was performed at 37°C without shaking. The preparation of the MBEC assay was similar to the MBIC. A measure of 120 μL of bacterial suspension was added per well as growth check (n = 8) or as AMP test (n = 6 per AMP concentration) and 120 μL of medium as sterile control (n = 8). The microtiter plate was incubated for 72 h. Afterward, the […] transferred to the challenge plate consisting of 120 μL of AMP solution (1 mg/mL to 1.95 μg/mL), 120 μL of medium for growth check (n = 8), 120 μL of medium (n = 4) or 120 μL of water (n = 2) or 120 μL of AMP with a concentration of 1 mg/mL (n = 2) for sterile control (in Figure A3, a pipetting scheme is shown). Incubation was performed for 24 h. The […] washed with 0.9% NaCl and half of them were stained with crystal violet (see MBIC). The other half was transferred to the recovery plate containing 120 μL of medium per well and placed in the ultrasonic bath for 30 min. The […] removed and the microtiter plate was incubated for 48 h. After the incubation period of 48 h, OD600 was measured. An overview of the individual steps of the MBIC/MBEC assay is shown in Figure 1.  Figure 5 Minimum biofilm eradication concentration (MBEC) assay for Desulfovibrio vulgaris: OD600 of the recovery plate (48 h incubation) and OD570 of the challenge plate (72 h incubation) for different concentrations of four antimicrobial peptides: […]-33, Bactenecin, […]1 (black striped), and uninhibited sample (gray); mean and standard deviation were determined by error propagation; asterisk indicates significant reduction (p = 0.005).

Compound: FFGKVLKLIRKIF [DASamP1]
- remaining at 168 h [1]: 70%
- remaining at 504 h [1]: 56%

Compound: CC[C@H](C)[C@H](NC(=O)[C@H](CCCNC(=N)N)NC(=O)[C@H](CS)NC(=O)[C@H](CC(C)C)NC(=O)[C@@H](N)CCCNC(=N)N)C(=O)N[C@H](C(=O)N[C@H](C(=O)N[C@H](C(=O)N[C@@H](CCCNC(=N)N)C(=O)N[C@H](C(=O)N[C@@H](CS)C(=O)N[C@@H](CCCNC(=N)N)C(=O)O)C(C)C)[C@@H](C)CC)C(C)C)C(C)C [Bactenecin] (H-RLCRIVVIRVCR-OH; N-terminus and C-terminus assumed)
- MBIC95% [2]: no biofilm inhibitory effects
- Lowest peptide concentration with complete removal of the biofilm (total biofilm mass, OD570) ([3]; 72 h biofilm on steel rivets, challenge with peptide, crystal violet staining, OD570): 500 µg/mL
- Effect on OD600 of recovery plate below the MBEC95% ([3]; peptide concentrations 250 and 125 µg/mL): partial effect
- Removal of total biofilm mass (OD570) at lower concentrations ([3]; peptide concentrations 250 and 125 µg/mL, crystal violet, OD570): partial removal
